Results: patent US11077120B2, “Prostaglandin receptor EP2 antagonists, derivatives, compositions, and uses related thereto” (Emory University, priority 2014, dated 2021)

These compounds were tested against T1, human EP2 receptors (Homo sapiens, UniProt P43116) (assay: cell-based cAMP TR-FRET assay, rightward shift of PGE2 concentration response curve (Schild KB), EP2). Conditions: Table 1; Schild KB from single antagonist concentration 1 μM; average of 2-3 measurements in duplicate; read-out: EP2 KB.
T1 construct: expressed in transfected cells
T1 sequence (P43116 whole entry): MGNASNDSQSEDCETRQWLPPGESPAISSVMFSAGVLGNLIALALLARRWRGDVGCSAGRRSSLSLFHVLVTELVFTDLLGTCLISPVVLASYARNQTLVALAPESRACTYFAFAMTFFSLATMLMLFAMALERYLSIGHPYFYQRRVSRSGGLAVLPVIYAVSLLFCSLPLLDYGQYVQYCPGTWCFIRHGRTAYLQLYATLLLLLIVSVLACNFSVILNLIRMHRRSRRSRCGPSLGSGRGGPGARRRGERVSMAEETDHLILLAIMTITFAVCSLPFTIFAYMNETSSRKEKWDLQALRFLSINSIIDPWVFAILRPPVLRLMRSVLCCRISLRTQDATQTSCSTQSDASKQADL
Procedure: KB value indicates the antagonist concentration required for a twofold rightward shift in the PGE2 dose-response curve. Thus, a lower KB value indicates a higher inhibitory potency.
The synthesis was carried out starting from commercially available 2-methyl indole or 2-trifluoromethyl indoles (11a-c), which on treatment with bromoacetonitrile provided intermediates (12a-c), which then were subjected to lithium aluminum hydride to reduce cyanide to amines. […] Synthesized derivatives were tested by using a cAMP-derived TR-FRET assay, at single concentration (1 μM) to observe a rightward shift of PGE2 (an EP2 agonist) concentration response curve in a C6G cell line that overexpresses human EP2 receptors.
A lower KB value indicates a higher inhibitory potency.
Intracellular cAMP was measured with a cell-based homogeneous time-resolved fluorescence resonance energy transfer (TR-FRET) method (Cisbio Bioassays). […] Endogenous cAMP produced by cells competes with labeled cAMP for binding to the cAMP antibody and thus reduces the FRET signal. Cells stably expressing human DP1, EP2, EP4, or IP receptors were seeded into 384-well plates in 30 μl complete medium (4,000 cells/well) and grown overnight. The medium was carefully withdrawn and 10 μl Hanks' Buffered Salt Solution (HBSS) (Hyclone) containing 20 μM rolipram was added into the wells to block phosphodiesterases. The cells were incubated at room temperature for 0.5-1 h and then treated with vehicle or test compound for 10 min before addition of increasing concentrations of appropriate agonist: BW245C for DP1, PGE2 for EP2 and EP4, or iloprost for IP. The cells were incubated at room temperature for 40 min, then lysed in 10 μl lysis buffer containing the FRET acceptor cAMP-d2 and 1 min later another 10 μl lysis buffer with anti-cAMP-Cryptate was added. After 60-90 min incubation at room temperature, the FRET signal was measured by an Envision 2103 Multilabel Plate Reader (PerkinElmer Life Sciences) with a laser excitation at 337 nm and dual emissions at 665 nm and 590 nm for d2 and Cryptate (50 s delay), respectively. The FRET signal was expressed as: F665/F590×10^4.

| Structure (SMILES) | Kb |
| --- | --- |
| COc1ccc(C(=O)NCCn2c(C)cc3ccccc32)cc1 [Compound 6c] | 75.6 nM |
| CCNc1ccc(C(=O)NCCn2c(C)cc3ccccc32)cc1 [Compound 6d] | 15.5 nM |
| CCCCN(CCCC)c1ccc(C(=O)NCCn2c(C)cc3ccccc32)cc1 [Compound 6h] | 68.8 nM |
| Cc1cc2ccccc2n1CCNC(=O)c1ccc(O)cc1 [Compound 6j] | > 1000 nM |
| Cc1cc2ccccc2n1CCNC(=O)c1ccc(NC(=N)N)cc1 [Compound 6k] | > 1000 nM |
| CC(=O)Oc1ccc(C(=O)NCCn2c(C)cc3ccccc32)cc1 [Compound 6m] | 150 nM |
| CC(=O)Nc1ccc(C(=O)NCCn2c(C)cc3ccccc32)cc1 [Compound 6n] | 97 nM |
| Cc1cc2ccccc2n1CCNC(=O)c1ccc(NC(=O)c2ccccc2F)cc1 [Compound 6o] | 51 nM |
| Cc1cc2ccccc2n1CCNC(=O)c1ccc(C(=O)N(C)C)cc1 [Compound 6q] | > 1000 nM |
| CCN(CC)C(=O)c1ccc(C(=O)NCCn2c(C)cc3ccccc32)cc1 [Compound 6r] | 800 nM |
| Cc1cc2ccccc2n1CCNC(=O)c1ccc(C(=O)OC(C)(C)C)cc1 [Compound 6t] | 100 nM |
| Cc1cc2ccccc2n1CCNC(=O)c1ccc(S(N)(=O)=O)cc1 [Compound 6v] | 486 nM |
| Cc1cc2ccccc2n1CCNC(=O)c1ccc(CNC(=O)OC(C)(C)C)cc1 [Compound 6x] | 84 nM |
| Cc1cc2ccccc2n1CCNC(=O)c1ccc(CN)cc1 [Compound 6y] | 690 nM |
| Cc1cc2ccccc2n1CCNC(=O)c1ccc(CCN)cc1 [Compound 6z] | 1220 nM |
| Cc1cc2ccccc2n1CCNC(=O)c1ccc(N(C)C)c(F)c1 [Compound 7a] | 18.1 nM |
| CC(=O)Nc1ccc(C(=O)NCCn2c(C)cc3ccccc32)cc1F [Compound 7b] | 530 nM |
| COc1ccc(C(=O)NCCn2c(C)cc3ccccc32)cc1F [Compound 7c] | 86.8 nM |
| CCN(CC)c1ccc(C(=O)NCCn2c(C)cc3ccccc32)cc1F [Compound 7d] | 4.6 nM |
| CCN(CC)c1ccc(C(=O)NCCn2c(C)cc3ccccc32)cc1C(F)(F)F [Compound 7e] | 310 nM |

| Structure (SMILES) | Kb |
| --- | --- |
| CCNc1ccc(C(=O)NCCn2c(C)cc3ccccc32)cc1C(F)(F)F [Compound 7f] | 20.2 nM |
| CCN(CC)c1ccc(C(=O)NCCn2c(C)cc3ccccc32)cc1OC [Compound 7g] | 61.2 nM |
| Cc1cc2ccccc2n1CCNC(=O)c1ccc(C#N)c(F)c1 [Compound 7h] | 140 nM |
| Cc1cc2ccccc2n1CCNC(=O)c1ccc(C#N)cc1F [Compound 7i] | 280 nM |
| Cc1cc2ccccc2n1CCNC(=O)c1ccc(N2CCC(C)CC2)cc1 [Compound 7l] | 30.3 nM |
| CCOC(=O)C1CCN(c2ccc(C(=O)NCCn3c(C)cc4ccccc43)cc2)CC1 [Compound 7m] | 500 nM |
| Cc1cc2ccccc2n1CCNC(=O)c1ccc(N2CCN(C)CC2)cc1 [Compound 7q] | 64 nM |
| Cc1cc2ccccc2n1CCNC(=O)c1cccc(N2CCN(C)CC2)c1 [Compound 7r] | 770 nM |
| Cc1cc2ccccc2n1CCNC(=O)c1cccc(N2CCOCC2)c1 [Compound 7s] | > 1000 nM |
| Cc1cc2ccccc2n1CCNC(=O)c1ccc(N2CCCN(C)CC2)cc1 [Compound 7v] | 148 nM |
| Cc1cc2ccccc2n1CCNC(=O)c1ccc(-n2cnnn2)cc1 [Compound 7x] | 42.2 nM |
| Cc1cc2ccccc2n1CCNC(=O)c1ccc(-n2nn[nH]c2=S)cc1 [Compound 7y] | 32.2 nM |
| Cc1cc2ccccc2n1CCNC(=O)c1ccc(C2CCCCC2)cc1 [Compound 8b] | 120 nM |
| Cc1cc2ccccc2n1CCNC(=O)c1ccc(N2CCNCC2)cc1 [Compound 8c] | 410 nM |
| CC(=O)N1CCN(c2ccc(C(=O)NCCn3c(C)cc4ccccc43)cc2)CC1 [Compound 8d] | 50.2 nM |
| Cc1cc2ccccc2n1CCNC(=O)c1ccc2[nH]nnc2c1 [Compound 8e] | 87.5 nM |
| Cc1cc2ccccc2n1CCNC(=O)c1ccc2[nH]c(=S)[nH]c(=O)c2c1 [Compound 8f] | 84.1 nM |
| Cc1cc2ccccc2n1CCNC(=O)c1ccc(C2CCCN(C(=O)OC(C)(C)C)C2)cc1 (centres unmarked) [Compound 8g] | 95 nM |
| Cc1cc2ccccc2n1CCNC(=O)c1ccc(C2CCCNC2)cc1 (centres unmarked) [Compound 8h] | > 1000 nM |
| Cc1cc2ccccc2n1CCNC(=O)c1ccc(OC2CCNCC2)cc1 [Compound 8i] | > 1000 nM |

| Structure (SMILES) | Kb |
| --- | --- |
| Cc1cc2ccccc2n1CCNC(=O)c1ccc(CN2CCOCC2)cc1 [Compound 8j] | 970 nM |
| Cc1cc2ccccc2n1CCNC(=O)c1ccc(CN2CCN(C)CC2)cc1 [Compound 8k] | > 1000 nM |
| Cc1cc2ccccc2n1CCNC(=O)c1cnc(N)nc1 [Compound 8l] | > 1000 nM |
| Cc1cc2ccccc2n1CCNC(=O)c1cccnc1N [Compound 8p] | 520 nM |
| Cc1cc2ccccc2n1CCNC(=O)C1CCC(c2ncccn2)CC1 (centres unmarked) [Compound 8q] | 380 nM |
| Cc1cc2cc(F)ccc2n1CCNC(=O)c1ccc(N2CCOCC2)cc1 [Compound 8r] | 14.9 nM |
| Cc1cc2cc(F)ccc2n1CCNC(=O)c1ccc(N2CCN(C)CC2)c(F)c1 [Compound 8s] | 62.2 nM |
| CCN(CC)c1ccc(C(=O)NCCn2c(C(F)(F)F)cc3ccccc32)cc1 [Compound 8t] | 150 nM |
| O=C(NCCn1c(C(F)(F)F)cc2ccccc21)c1ccc(N2CCOCC2)cc1 [Compound 8u] | 120 nM |
| CCN(CC)c1ccc(C(=O)NCCn2c(C)nc3ccccc32)cc1 [Compound 8v] | 190 nM |
| CCN(CC)c1ccc(C(=O)NCCn2cnc3ccccc32)cc1 [Compound 8w] | > 1000 nM |
| CCN(CC)C(=O)c1ccc(C(=O)NCCc2c(C)[nH]c3ccccc23)cc1 [Compound 8y] | > 1000 nM |
| Cc1[nH]c2ccccc2c1CCNC(=O)c1ccc(N2CCCCC2)cc1 [Compound 9b] | 19.8 nM |
| Cc1[nH]c2ccccc2c1CCNC(=O)c1ccc(N2CCOCC2)c(F)c1 [Compound 9d] | 66 nM |
| Cc1[nH]c2ccccc2c1CCNC(=O)c1ccc(N2CCN(C)CC2)cc1 [Compound 9e] | 135 nM |
| CCNc1ncc(C(=O)NCCc2c(C)[nH]c3ccccc23)cn1 [Compound 9f] | 155 nM |
| Cc1[nH]c2ccccc2c1CCNC(=O)c1cnc(N2CCOCC2)nc1 [Compound 9g] | 280 nM |
| Cc1cc2ccccc2n1CCNC(=O)c1nc2cc(F)ccc2[nH]1 [Compound 9h] | 130 nM |

Same assay, conditions: Table 3; Schild KB from single concentration 1 μM; read-out: EP2 KB

| Structure (SMILES) | Kb |
| --- | --- |
| COc1cc(/C=C/C(=O)N2CCCC(c3c(C)[nH]c4ccccc34)C2)cc(OC)c1OC (centres unmarked) [Compound 16n] | > 1000 nM |
| COc1cc(/C=C/C(=O)N2CCC(c3c(C)[nH]c4ccccc34)C2)cc(OC)c1OC (centres unmarked) [Compound 16o] | > 1000 nM |

Same assay, conditions: Table 6

| Structure (SMILES) | EP2 KB |
| --- | --- |
| Cc1nc2ccccc2c(C(=O)NCCn2c(C)cc3ccccc32)c1O [TG7-276] | Inactive |

Same assay, conditions: Table 6; read-out: EP2 KB

| Structure (SMILES) | Kb |
| --- | --- |
| O=C(NCCn1c(C(F)(F)F)cc2ccccc21)c1cc(-c2ccc(F)cc2)n[nH]1 [TG7-266] | 8800 nM |
| Cc1cc(C(=O)NCCn2c(C)cc3ccccc32)n(Cc2ccccc2)n1 [TG7-274] | 1330 nM |
| Cc1ccc2c(O)c(C(=O)NCCn3c(C)cc4ccccc43)cnc2n1 [TG7-275] | 1810 nM |
| Cc1cc2ccccc2n1CCNC(=O)c1cc(CC(C)C)no1 [TG7-277] | 172 nM |
| Cc1cc2ccccc2n1CCNC(=O)c1ccc(N2CCC(C(=O)N(C)C)CC2)cc1 [TG8-64] | 190 nM |
| COc1cc(C(=O)NCCn2c(C)cc3ccccc32)ccc1OCCN(C)C [TG8-75] | 1000 nM |

Same assay, conditions: read-out: EP2 KB

| Structure (SMILES) | Kb |
| --- | --- |
| Cc1cc2ccccc2n1CCNC(=O)c1cccc(S(N)(=O)=O)c1 [Compound 6w] | > 1000 nM |
